Columns and labels:
ecNadD = ecNadD (Escherichia coli (strain K12), UniProt P0A752); test: biochemical; assay type: biochemical
baNadD = baNadD (Bacillus anthracis, UniProt C3L5T6); test: biochemical; assay type: biochemical
Sequence of baNadD (C3L5T6 whole entry, looked up): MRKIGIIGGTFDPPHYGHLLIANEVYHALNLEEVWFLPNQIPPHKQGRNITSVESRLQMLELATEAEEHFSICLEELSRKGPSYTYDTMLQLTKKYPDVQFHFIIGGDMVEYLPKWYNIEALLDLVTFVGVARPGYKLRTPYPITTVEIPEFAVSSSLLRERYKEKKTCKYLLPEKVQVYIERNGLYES

Row | Compound | […]. coli (ecNadD) [%] | […]. anthracis (baNadD) [%]
1 | Cn1ccc(NC(=O)Nc2ccc(Cl)cc2Cl)n1 [compound 091] | 10 | 0
2 | Cc1ccc(S(=O)(=O)/N=C/c2cccnc2)cc1 [compound 092] | 10 | 0
3 | CCS(=O)(=O)CCSc1nc2ccccc2o1 [compound 094] | 10 | 0
4 | NS(=O)(=O)c1ccc(CCNC(=S)Nc2ccc(S(N)(=O)=O)cc2)cc1 [compound 095] | 10 | 0
5 | NC(=O)c1ccc(NC(=O)COc2ccc3ccccc3c2)cc1 [compound 097] | 10 | 63
6 | COc1cccc(C=C2C(=O)NC(=O)NC2=O)c1OCC(=O)O [compound 098] | 10 | 13
7 | Cc1cc(OCC(=O)Nc2ccc(S(N)(=O)=O)cc2)ccc1Cl [compound 099] | 10 | 2
8 | O=C(CSc1nnc(-c2ccncc2)[nH]1)Nc1ccccc1Cl [compound 100] | 9 | 0
9 | NS(=O)(=O)c1ccc(CCNC(=O)COc2ccc(Cl)cc2Cl)cc1 [compound 101] | 9 | 0
10 | Cc1nc(N)nc(O)c1Oc1ccccc1 [compound 102] | 9 | 6
11 | COc1ccc(NS(=O)(=O)c2ccc(SC)cc2)cc1 [compound 103] | 9 | 0
12 | Nc1nnc(SCc2ccccc2Cl)s1 [compound 104] | 9 | 29
13 | Cc1ccc(NC(=S)NC(=O)c2ccc(F)cc2)nc1 [compound 105] | 9 | 51
14 | CCOC(=O)c1cc(-c2ccc(C)cc2)[nH]n1 [compound 106] | 9 | 0
15 | O=C(O)c1cc(Cl)c(Cl)cc1C(=O)Nc1ccc(O)cc1 [compound 107] | 9 | 0
16 | Cn1nnnc1SCC(=O)Nc1ccc(Br)cc1Cl [compound 108] | 9 | 0
17 | CCCn1cc(C(CC(=O)O)C(=O)O)c2ccccc21 (centres unmarked) [compound 110] | 9 | 0
18 | O=c1/c(=C/c2ccc(O)cc2)sc2nc3cc(Br)cnc3n12 [compound 111] | 9 | 6
19 | O=C(Nc1ncnc2[nH]cnc12)c1ccccc1 [compound 112] | 8 | 0
20 | Br.Cn1ccnc1SCC(=O)c1ccccc1 [compound 113] | 8 | 12
21 | CCCCN(C(C)=O)c1ccc(C(=O)O)cc1 [compound 114] | 8 | 0
22 | O=C(O)CN(c1ccccc1)S(=O)(=O)c1ccccc1[N+](=O)[O-] [compound 115] | 8 | 0
23 | O=C(O)c1nonc1NCn1cnnn1 [compound 116] | 8 | 5
24 | O=C(O)Cn1cc(Cl)c([N+](=O)[O-])n1 [compound 117] | 8 | 14
25 | NS(=O)(=O)c1ccc(/N=C/c2ccc(Cl)cc2Cl)cc1 [compound 118] | 8 | 0
26 | O=C(O)c1cc(/N=C/c2ccc3c(c2)OCO3)ccc1O [compound 119] | 8 | 0

Row | Compound | […]. coli (ecNadD) [%] | […]. anthracis (baNadD) [%]
27 | Cc1cccc(C(=O)NNC(=O)/C=C\C(=O)O)c1 [compound 120] | 8 | 0
28 | CCSc1ccccc1C(=O)Nc1ccc(S(N)(=O)=O)cc1 [compound 121] | 8 | 0
29 | Cc1ccc(C(=O)Nc2nc3ccc(Br)cc3s2)o1 [compound 123] | 7 | 0
30 | O=C(NCc1ccccc1)Nc1ccc2nsnc2c1 [compound 124] | 7 | 0
31 | CC(=O)Nc1ccc(OCC(=O)Nc2ccccc2)cc1 [compound 125] | 7 | 0
32 | CCOc1ccc(S(=O)(=O)Nc2cccnc2)cc1 [compound 126] | 7 | 22
33 | CC(=O)c1ccc(NC(=O)CC(NCc2cccnc2)C(=O)O)cc1 (centres unmarked) [compound 127] | 7 | 59
34 | CC(=O)Nc1ccc(NC(=O)CSc2nccc(O)n2)cc1 [compound 128] | 7 | 0
35 | O=C(CSc1nnc[nH]1)Nc1ccc(I)cc1 [compound 129] | 7 | 0
36 | O=C(O)c1ccccc1S(=O)(=O)c1ccccc1C(=O)O [compound 130] | 7 | 28
37 | O=C(O)/C=C\C(=O)Nc1ccc(Br)c(Cl)c1 [compound 131] | 7 | 0
38 | O=C(O)c1ccccc1NC1=NS(=O)(=O)c2ccccc21 [compound 132] | 6 | 25
39 | O=C(O)c1cc(C(=O)O)cc(N2C(=O)c3ccc(C(=O)O)cc3C2=O)c1 [compound 134] | 6 | 0
40 | O=c1[nH]c2ccc(/N=C/c3cc(Cl)ccc3O)cc2[nH]1 [compound 135] | 6 | 10
41 | NC(=S)NNC(=O)c1ccccc1C(=O)O [compound 136] | 6 | 64
42 | O=C(Nc1ncccc1Cl)c1ccc(Br)cc1 [compound 137] | 6 | 7
43 | COc1ccc(-c2csc(N)n2)cc1[N+](=O)[O-] [compound 138] | 6 | 54
44 | COc1ccc(S(=O)(=O)Nc2ccc(C(N)=O)cc2)cc1Cl [compound 139] | 6 | 0
45 | NS(=O)(=O)c1ccc2nc(NC(=O)CCc3ccccc3)sc2c1 [compound 140] | 6 | 0
46 | O=C(O)c1ccc(-n2cccn2)cc1 [compound 141] | 6 | 17
47 | O=S(=O)(NCCCc1ccccc1)c1cccc2nsnc12 [compound 142] | 6 | 0
48 | c1ccc2[nH]c(SCc3cn4ccsc4n3)nc2c1 [compound 143] | 6 | 2
49 | CC1=C(C)CC(C(=O)Nc2ccc(I)cc2)C(C(=O)O)C1 (centres unmarked) [compound 144] | 6 | 65
50 | O=C(Cn1cnc2ccccc2c1=O)Nc1nccs1 [compound 145] | 6 | 0
51 | Cc1nnc(SCC(=O)Nc2ccc(Cl)cn2)[nH]c1=O [compound 146] | 5 | 11
52 | Cc1ccc(C(=O)N/N=C/c2ccc(O)c(I)c2)cn1 [compound 147] | 5 | 12

Row | Compound | […]. coli (ecNadD) [%] | […]. anthracis (baNadD) [%]
53 | O=C(O)/C=C/c1ccncc1 [compound 148] | 5 | 4
54 | CCS(=O)(=O)n1nc(-c2ccc(OC)cc2)nc1N [compound 149] | 5 | 0
55 | CSc1ccc(CNc2ccc(S(N)(=O)=O)cc2)cc1 [compound 150] | 5 | 0
56 | O=C(/C=C/c1ccoc1)c1ccccc1O [compound 151] | 5 | 0
57 | O=C(O)C1C2C=CC(C2)C1C(=O)Nc1ccc(Cl)c(Cl)c1 (centres unmarked) [compound 152] | 5 | 0
58 | O=C(O)c1cc(NS(=O)(=O)c2cccc3nsnc23)cc(C(=O)O)c1 [compound 153] | 5 | 0
59 | O=C(O)CNC(=S)N(Cc1ccccc1)Cc1cccs1 [compound 154] | 5 | 0
60 | Cc1ccc2nc(NC(=S)NC(=O)c3cccs3)sc2c1 [compound 155] | 5 | 26
61 | O=C(O)c1ccccc1C(=O)c1cccs1 [compound 156] | 5 | 22
62 | NS(=O)(=O)c1ccc(NCc2cccc(Cl)c2Cl)cc1 [compound 157] | 5 | 0
63 | CSc1sc(C(=O)O)c(I)c1S(=O)(=O)C(C)C [compound 158] | 4 | 36
64 | O=C(O)C1=C(c2cc([N+](=O)[O-])ccc2O)N=S=N1 [compound 159] | 4 | 1
65 | Cc1ccc(-c2nnc(SCC(=O)O)[nH]2)cc1 [compound 160] | 4 | 0
66 | N=C(NNS(=O)(=O)c1ccccc1)c1ccccn1 [compound 161] | 4 | 68
67 | Cc1ccc(S(=O)(=O)/N=C(\N)c2ccc(F)cc2)cc1 [compound 162] | 4 | 0
68 | CS(=O)(=O)N(CC(=O)Nc1ccccc1Br)c1ccc(Cl)cc1 [compound 163] | 4 | 54
69 | Nc1cc(=O)[nH]c(SCC(=O)Nc2ccc(S(N)(=O)=O)cc2)n1 [compound 164] | 4 | 32
70 | O=[N+]([O-])c1cc(Cl)ccc1NCCCNS(=O)(=O)c1ccccc1 [compound 165] | 4 | 0
71 | O=C(O)c1cccc(-n2nc(O)ccc2=O)c1 [compound 166] | 4 | 19
72 | O=C(CSc1nc2ccccc2c(=O)[nH]1)NCc1ccco1 [compound 167] | 4 | 0
73 | O=C(O)CN1C(=O)CC(Cc2ccc(Cl)cc2)C1=O (centres unmarked) [compound 168] | 3 | 0
74 | O=C(O)CSc1nc2ccccc2n1CC(=O)O [compound 169] | 3 | 0
75 | COc1ccc(S(=O)(=O)Nc2ccc(CC#N)cc2)cc1C [compound 170] | 3 | 0
76 | O=C(NNC(=O)C1CC=CCC1C(=O)O)c1cccc([NH2+][O-])c1 (centres unmarked) [compound 171] | 3 | 24

— patent publication US8785499B2 (priority 2009, dated 2014)
